Measurements: US20230100173A1, “A TOPICAL COMPOSITION COMPRISING AN EXTRACT OF COMBINED HERBS […] ARILLUS FOR TLSP INHIBITION AND THE TREATMENT OR A[…] SKIN INFLAMMATORY DISEASE AND THE USE THEREOF” (ME[…]., LTD, priority 2020, published 2023)

Key:
[1] = test system: TSLP; assay: Inhibition of TNF alpha-induced TSLP expression in HaCaT cells (RT-PCR); format: cell-based, human; conditions: TNFα 50 ng/ml, extract 1 μg/ml, Dex 200 nM, mean
Description: (§1) In order to determine the anti-inflammatory activity of inventive extract, following inhibition test of cytokine expression using HaCaT cell was performed according to the procedure disclosed in the literature (Jeong et al., 2019, J. Invest. Dermatol., May; 139 (5): pp 1098-1109).
(§2) HaCaT cell (human epithelial keratinocyte cell, 300493, CLS) was inoculated into DMEM medium containing 10% Fetal bovine serum, 100 units/m1 of penicillin, 100n/m1 of streptomycin (D6429, Sigma-Aldrich Co. Ltd) and was incubated in the incubator (HERA cell 150i, Thermo Fisher Scientific Co. Ltd.) maintaining optimum humidity (85-95%) and 5% CO2 atmosphere.
(§3) For performing gene expression test, the incubated cells were transferred to 12 wells and 50 ng/ml of TNF alpha (RC214-12, Biobasic Co. Ltd) was treated therewith for 1 hour to induce inflammatory response.
(§4) 1 hour after inducing the inflammation, 1 μg/ml of inventive extract prepared in Examples was treated with identical medium and subjected to incubation for 1 hour. After the incubation, RNA (FATRR-001, Favorgen) was extracted from the cell and cDNA was synthesized from the RNA using by cDNA synthesis kit (RRO36A, TAKARA). […]

[2] = test system: IL-1β; assay: Inhibition of TNF alpha-induced IL-1β expression in HaCaT cells (RT-PCR); format: cell-based, human; conditions: TNFα 50 ng/ml, extract 1 μg/ml, Dex 200 nM, mean
Description: as §1, §2, §3, §4

[3] = test system: DNFB-induced skin dermatitis, BALB/C female mouse; assay: DNFB-induced atopic dermatitis in BALB/C mice, skin dermatitis severity score; format: in vivo; conditions: 16th day, topical WIN-1001X 10 mg/ml, DEX 200 μM, DNFB+DIW 8.8
Description: To confirm the inhibitory effect of inventive extract on the atopic dermatitis, the animal model test using by mice, was performed according to the method disclosed in the reference (Li et al., Drug. Des. Devel. Ther., 2016, Feb. 19; 10:781-191).
(§5) 100 μL of 0.15% (w/v) DNFB (2,4-dinitrofluorobenzene, D1529, Sigma-Aldrich Co. Ltd.) was spread on […] of 6 weeks-old BALB/C female mouse (DBL Co., Ltd. Incheon, Korea) and after removing the central dorsal hair, 100 μL of 0.15% (w/v) DNFB (2,4-dinitrofluorobenzene, D1529, Sigma-Aldrich Co. Ltd.) was spread at every third day starting from at 7th day to 16th day to induce skin inflammation.
For the purpose of comparing with test group, the identical test excepting using acetone instead of DNFB and DIW instead of test sample with the above procedure was performed.

[4] = test system: skin epidermal layer; format: in vivo, mouse; conditions: DNFB BALB/C mice, 16th day, H&E; topical WIN-1001X 10 mg/ml, DEX 200 μM; acetone+DIW = 1, DNFB+DIW 7.06
Description: (§8) Ltd.) was spread at every third day starting from at 7th day to 16th day to induce skin inflammation. […] Additionally, the histological analysis on skin tissue of test animal has been performed. Specifically, the dorsal skin tissue occurring dermatitis was fixed on 4% (w/v) paraformaldehyde solution ([MUT], Sigma-Aldrich) in shaker maintaining 4° C. (CR300, […] ) at 16th day after the sample treatment and 12 hours after the fixation, the dehydrated and transparent tissue was embedded in paraffin, sliced (5 μm of width) to make tissue slices.

[5] = test system: mast cells infiltrated into inflamed lesion; format: in vivo, mouse; conditions: DNFB BALB/C mice, 16th day, toluidine blue; topical WIN-1001X 10 mg/ml, DEX 200 μM; acetone+DIW = 1, DNFB+DIW 3.18
Description: as §8

[6] = test system: IL-4; assay: IL-4 expression in dorsal skin of DNFB mice (RT-PCR); format: in vivo, mouse; conditions: 16th day, WIN-1001X 10 mg/ml, DEX 200 μM, DNFB+DIW 11.4
Description: as §5
(§6) In order to determine the anti-inflammatory activity of inventive extract, following inhibition test of cytokine expression using test animal was performed according to the procedure disclosed in the literature (Li et al., Drug. Des. Devel. Ther., 2016, Feb. 19; 10:781-191).
(§7) At 16th day after the treatment of DNFB, RNA (FATRR-001, Favorgan) was extracted from the dorsal skin of mice prepared in Experimental Example 2 and cDNA was synthesized from the RNA using by cDNA synthesis kit (RRO36A, TAKARA). The polymerization reaction was performed using by the synthesized cDNA and Sybrgreen kit (RT500M, Enzynomics) and then Real-time-PCR was performed using by primers for various cytokines involved in skin inflammation (GADPH, TSLP, GM-CSF, IL-4, IL-10, IL-13, IL-31 and IL-33) as disclosed in Table 7.

[7] = test system: IL-10; assay: IL-10 expression in dorsal skin of DNFB mice (RT-PCR); format: in vivo, mouse; conditions: 16th day, WIN-1001X 10 mg/ml, DEX 200 μM, DNFB+DIW 19.3
Description: as §5, §6, §7

[8] = test system: IL-13; assay: IL-13 expression in dorsal skin of DNFB mice (RT-PCR); format: in vivo, mouse; conditions: 16th day, WIN-1001X 10 mg/ml, DEX 200 μM, DNFB+DIW 48.6
Description: as §5, §6, §7

[9] = test system: IL-22; assay: IL-22 expression in dorsal skin of DNFB mice (RT-PCR); format: in vivo, mouse; conditions: 16th day, WIN-1001X 10 mg/ml, DEX 200 μM, DNFB+DIW 29.2
[10] = test system: IL-31; assay: IL-31 expression in dorsal skin of DNFB mice (RT-PCR); format: in vivo, mouse; conditions: 16th day, WIN-1001X 10 mg/ml, DEX 200 μM, DNFB+DIW 3.93
Description: as §5, §6, §7

[11] = test system: IL-33; assay: IL-33 expression in dorsal skin of DNFB mice (RT-PCR); format: in vivo, mouse; conditions: 16th day, WIN-1001X 10 mg/ml, DEX 200 μM, DNFB+DIW 9.47
Description: as §5, §6, §7

[12] = test system: TSLP; assay: TSLP expression in dorsal skin of DNFB mice (RT-PCR); format: in vivo, mouse; conditions: 16th day, WIN-1001X 10 mg/ml, DEX 200 μM, DNFB+DIW 7.51
Description: as §5
In order to determine the anti-inflammatory activity of inventive extract, following inhibition test of TSLP cytokine expression using test animal was performed according to the procedure disclosed in the literature (Li et al., Drug. Des. Devel. Ther., 2016, Feb. 19; 10:781-191).
At 16th day after the treatment of DNFB, RNA (FATRR-001, Favorgan) was extracted from the dorsal skin of mice prepared in Experimental Example 2 and cDNA was synthesized from the RNA using by cDNA synthesis kit (RRO36A, TAKARA). The polymerization reaction was performed using by the synthesized cDNA and Sybrgreen kit (RT500M, Enzynomics) and then Real-time-PCR was performed using by primers for TSLP cytokines involved in skin inflammation as disclosed in Table 7.

## C[C@@H]1C[C@H]2[C@@H]3CCC4=CC(=O)C=C[C@]4(C)[C@@]3(F)[C@@H](O)C[C@]2(C)[C@@]1(O)C(=O)CO [DEX, Dexamethasone]
[1]
  TSLP expression (RT-PCR, relative to untreated = 1): 52.49
[2]
  IL-1β expression (RT-PCR, relative to untreated = 1): 1.081
[3]
  Improving effect on skin dermatitis (severity score, total score 12): 2.2
[4]
  relative area of epidermis: 1.638 fold
[5]
  relative number of mast cells: 0.8548 fold
[6]
  IL-4 expression (RT-PCR, relative to acetone+DIW = 1): 4.798
[7]
  IL-10 expression (RT-PCR, relative to acetone+DIW = 1): 20.44
[8]
  IL-13 expression (RT-PCR, relative to acetone+DIW = 1): 12.56
[9]
  IL-22 expression (RT-PCR, relative to acetone+DIW = 1): 13.08
[10]
  IL-31 expression (RT-PCR, relative to acetone+DIW = 1): 1.001
[11]
  IL-33 expression (RT-PCR, relative to acetone+DIW = 1): 0.7365
[12]
  TSLP expression (RT-PCR, relative to acetone+DIW = 1): 1.311
